Read-outs that look alike come from different tables or passages of the source.
What was measured:
[1] = target: T1, human blood platelet PDE5 (Homo sapiens, UniProt O76074); experiment: PDE5 enzyme inhibition activity test (scintillation proximity); assay type: biochemical
T1 construct: obtained by suitably treating various tissues and separating the enzyme with FPLC; from tissue; host or cells: human blood platelets
Method: (§1) More specifically, PDE5 and PDE3 were obtained from human blood platelet, and PDE6 was separated from bovine retina. Upon enzyme was separated out, the enzyme inhibition activity test would be carried out immediately. The said enzyme inhibition activity test was performed by directly detecting the scintillation proximity of AMP/GMP using TRKQ7100 and TRKQ7090 kits, which was generally as follows. In the presence of different concentrations of inhibitor and a small amount of substrate, 10 μl of buffer (50 mM Tris/HCl PH 7.5, 8.3 mM MgCl2, 1.7 mM EGTA) was added, and then water was added to a final volume of 100 μl. The reaction was initiated with a fixed amount of enzyme, incubated at 30° C. for 30 min, and then quenched with 50 μl of yttrium silicate beads comprising zinc sulphate. After shaken for 20 min, the reaction mixture was put in dark and settled for 30 min, and then readed on a BECKMAN LS6500 MULTI-PURPOSE SCINTILLATION COUNTER.

[2] = target: T2, PDE6 in bovine retina (Bos taurus, UniProt P11541+P23439); experiment: PDE6 enzyme inhibition activity test (scintillation proximity); assay type: biochemical; details: for PDE6 IC50/PDE5 IC50: selectivity, ratio of IC50 PDE6/IC50 PDE5
T2 construct: obtained by suitably treating various tissues and separating the enzyme with FPLC; from tissue; host or cells: bovine retina
T2 sequence (P11541 2-856 limits assumed): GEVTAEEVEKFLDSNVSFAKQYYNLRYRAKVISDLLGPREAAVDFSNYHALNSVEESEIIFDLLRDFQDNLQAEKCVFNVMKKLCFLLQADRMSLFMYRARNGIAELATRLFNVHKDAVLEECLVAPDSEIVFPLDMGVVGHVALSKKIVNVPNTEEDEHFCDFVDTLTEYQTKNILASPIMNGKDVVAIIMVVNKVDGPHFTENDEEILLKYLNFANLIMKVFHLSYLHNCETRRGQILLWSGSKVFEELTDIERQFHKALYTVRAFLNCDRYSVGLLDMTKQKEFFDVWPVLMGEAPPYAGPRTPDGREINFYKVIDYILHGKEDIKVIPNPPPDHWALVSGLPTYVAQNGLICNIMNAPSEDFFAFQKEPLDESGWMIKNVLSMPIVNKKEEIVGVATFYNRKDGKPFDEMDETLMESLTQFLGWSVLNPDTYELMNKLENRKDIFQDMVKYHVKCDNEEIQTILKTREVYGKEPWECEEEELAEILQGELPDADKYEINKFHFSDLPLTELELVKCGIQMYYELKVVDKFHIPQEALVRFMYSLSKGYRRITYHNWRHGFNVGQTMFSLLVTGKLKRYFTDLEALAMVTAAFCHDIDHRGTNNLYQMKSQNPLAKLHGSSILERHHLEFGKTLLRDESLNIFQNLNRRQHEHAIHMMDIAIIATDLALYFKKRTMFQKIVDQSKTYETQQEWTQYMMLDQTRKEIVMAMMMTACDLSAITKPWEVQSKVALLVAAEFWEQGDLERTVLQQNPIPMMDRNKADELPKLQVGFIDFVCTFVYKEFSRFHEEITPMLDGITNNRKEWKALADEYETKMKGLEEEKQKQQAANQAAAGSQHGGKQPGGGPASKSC
T2 sequence (P23439 2-850 limits assumed): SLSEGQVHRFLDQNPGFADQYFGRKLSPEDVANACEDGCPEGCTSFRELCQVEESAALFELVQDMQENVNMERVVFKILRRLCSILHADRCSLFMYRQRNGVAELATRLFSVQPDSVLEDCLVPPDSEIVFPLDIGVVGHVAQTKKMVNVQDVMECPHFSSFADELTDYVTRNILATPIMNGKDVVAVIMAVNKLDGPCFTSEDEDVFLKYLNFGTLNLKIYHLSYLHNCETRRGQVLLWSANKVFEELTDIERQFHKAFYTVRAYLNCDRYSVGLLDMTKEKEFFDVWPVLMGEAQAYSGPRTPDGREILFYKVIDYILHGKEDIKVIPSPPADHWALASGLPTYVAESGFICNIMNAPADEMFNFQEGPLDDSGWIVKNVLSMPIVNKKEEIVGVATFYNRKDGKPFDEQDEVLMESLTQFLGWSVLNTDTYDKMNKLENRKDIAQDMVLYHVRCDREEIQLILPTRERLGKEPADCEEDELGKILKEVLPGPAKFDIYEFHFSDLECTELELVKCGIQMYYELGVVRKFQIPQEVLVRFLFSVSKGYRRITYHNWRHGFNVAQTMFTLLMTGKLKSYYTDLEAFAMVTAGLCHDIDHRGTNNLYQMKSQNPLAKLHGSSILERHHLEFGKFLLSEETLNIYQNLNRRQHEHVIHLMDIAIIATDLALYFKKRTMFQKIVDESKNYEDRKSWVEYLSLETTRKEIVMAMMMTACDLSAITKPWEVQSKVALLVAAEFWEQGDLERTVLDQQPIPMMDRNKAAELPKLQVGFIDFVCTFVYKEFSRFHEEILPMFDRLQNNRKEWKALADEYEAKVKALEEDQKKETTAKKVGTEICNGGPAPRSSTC
Method: as §1

[3] = PDE6 separated from bovine retina, read-out: PDE6 IC50

| Structure (SMILES) | IC50 ([1]; PDE5 table) | IC50 ([1]; as repeated in the PDE6 table) | IC50 [2, 3] | PDE6 IC50/PDE5 IC50 [2] | IC50 [2] |
| --- | --- | --- | --- | --- | --- |
| CCCOc1ccc(S(=O)(=O)NC(C)C(=O)OCC)cc1-c1nc(CC)c(CC)c(=O)[nH]1 (stereo not shown) [Example 123, ethyl 2-(N-(3-(4,5-diethyl-1,6-dihydro-6-oxopyrimidin-2-yl)-4-n-propoxyphenyl)sulfonyl)aminopropionate] | 490 pM | 490 pM | 13300 pM | 27.3 |  |
| CCCOc1ccc(S(=O)(=O)NCCCS(=O)(=O)O)cc1-c1nc(CC)c(CC)c(=O)[nH]1 [Example 124, 3-(N-(3-(4,5-diethyl-1,6-dihydro-6-oxopyrimidin-2-yl)-4-n-propoxyphenyl)sulfonyl)aminopropylsulfonic acid] | 130 pM | 130 pM | 3760 pM | 28.6 |  |
| CCCOc1ccc(S(=O)(=O)NCCS(=O)(=O)O)cc1-c1nc(CC)c(CC)c(=O)[nH]1 [Example 125, 2-(N-(3-(4,5-diethyl-1,6-dihydro-6-oxopyrimidin-2-yl)-4-n-propoxyphenyl)sulfonyl)aminoethylsulfonic acid] | 190 pM | 190 pM |  | 14.6 | 2710 pM |
| CCCOc1ccc(S(=O)(=O)NC(CC(N)=O)C(=O)O)cc1-c1nc(CC)c(CC)c(=O)[nH]1 (stereo not shown) [Example 126, 2-(N-(3-(4,5-diethyl-1,6-dihydro-6-oxopyrimidin-2-yl)-4-n-propoxyphenyl)sulfonyl)amino-3-aminoformylpropionic acid] | 1790 pM | 1790 pM | 54900 pM | 30.7 |  |
| CCCOc1ccc(S(=O)(=O)N2CCN(CCO)CC2)cc1-c1nc(CC)c(CC)c(=O)[nH]1 [Example 133, 5,6-diethyl-2-(2-n-propoxy-5-(4-hydroxyethyl-1-piperazinylsulfonyl)phenyl]pyrimid-4(3H)-one] | 1130 pM | 1310 pM | 20900 pM | 15.9 |  |
| CCCOc1ccc(S(=O)(=O)N(CCO)CCN2CCOCC2)cc1-c1nc(CC)c(CC)c(=O)[nH]1 [Example 135, 5,6-diethyl-2-(2-n-propoxy-5-(N-(2-morpholinylethyl)-N-(2-hydroxyethyl)aminosulfonyl)phenyl)pyrimid-4(3H)-one] | 1010 pM | 1010 pM | 9660 pM | 9.6 |  |
| CCCOc1ccc(C(=O)NC(Cc2ccccc2)C(=O)O)cc1-c1nc(CC)c(CC)c(=O)[nH]1 (stereo not shown) [Example 138, 2-(3-(4,5-diethyl-1,6-dihydro-6-oxopyrimidin-2-yl)-4-n-propoxybenzamido)-3-phenylpropionic acid] | 470 pM | 470 pM | 5420 pM | 11.4 |  |
| CCCOc1ccc(C(=O)N2CCCC2C(=O)OC)cc1-c1nc(CC)c(CC)c(=O)[nH]1 (stereo not shown) [Example 139] | 610 pM | 610 pM | 7820 pM | 12.8 |  |
| CCCOc1ccc(C(=O)NC(Cc2ccc(O)cc2)C(=O)OC)cc1-c1nc(CC)c(CC)c(=O)[nH]1 (stereo not shown) [Example 140, methyl 2-(3-(4,5-diethyl-1,6-dihydro-6-oxopyrimidin-2-yl)-4-n-propoxybenzamido)-3-(4-hydroxyphenyl)propionate] | 570 pM | 570 pM | 4250 pM | 7.5 |  |
| CCCOc1ccc(C(=O)NC(C)C(=O)O)cc1-c1nc(CC)c(CC)c(=O)[nH]1 (stereo not shown) [Example 145, 2-(3-(4,5-diethyl-1,6-dihydro-6-oxopyrimidin-2-yl)-4-n-propoxybenzamido)propionic acid] | 470 pM | 470 pM | 24200 pM | 51.5 |  |
| CCCOc1ccc(C(=O)NC(CC(N)=O)C(=O)O)cc1-c1nc(CC)c(CC)c(=O)[nH]1 (stereo not shown) [Example 146, 2-(3-(4,5-diethyl-1,6-dihydro-6-oxopyrimidin-2-yl)-4-n-propoxybenzamido)-3-aminoformylpropionic acid] | 930 pM | 930 pM | 6640 pM | 7.2 |  |
| CCCOc1ccc(C(=O)NC(Cc2ccccc2)C(=O)OC)cc1-c1nc(CC)c(CC)c(=O)[nH]1 (stereo not shown) [Example 150, methyl 2-(3-(4,5-diethyl-1,6-dihydro-6-oxopyrimidin-2-yl)-4-n-propoxybenzamido)-3-phenylpropionate] | 520 pM | 520 pM | 2780 pM | 5.3 |  |
| CCCOc1ccc(C(=O)NC(C)C(=O)N2CCN(C)CC2)cc1-c1nc(CC)c(CC)c(=O)[nH]1 (stereo not drawn) [Example 154, 3-(4,5-diethyl-1,6-dihydro-6-oxopyrimidin-2-y1)-N-(1-(4-methylpiperazin-l-yl)-1-oxopropan-2-y1)-4-n-propoxybenzamide] | 400 pM | 400 pM | 37900 pM | 94.6 |  |
| CCCOc1ccc(C(=O)N2CCN(CCOCCO)CC2)cc1-c1nc(CC)c(CC)c(=O)[nH]1 [Example 163] | 7920 pM | 7920 pM | 48600 pM | 6.1 |  |
| CCCOc1ccc(C(=O)N2CCN(CCO)CC2)cc1-c1nc(CC)c(CC)c(=O)[nH]1 [Example 164] | 460 pM | 460 pM | 31800 pM | 68.7 |  |
| CCCOc1ccc(C(=O)NC(C)CO)cc1-c1nc(CC)c(CC)c(=O)[nH]1 (stereo not shown) [Example 166, 3-(4,5-diethyl-1,6-dihydro-6-oxopyrimidin-2-yl)-N-(1-hydroxyprop-2-yl)-4-n-propoxybenzamide] | 330 pM | 330 pM | 5150 pM | 15.6 |  |
| CCCOc1ccc(C(=O)NCCCS(=O)(=O)O)cc1-c1nc(CC)c(CC)c(=O)[nH]1 [Example 169, 3-(3-(4,5-diethyl-1,6-dihydro-6-oxopyrimidin-2-yl)-4-n-propoxybenzamido)propyl-1-sulfonic acid] | 110 pM | 110 pM | 10400 pM | 91.3 |  |
| CCCOc1ccc(C(=O)NC2CCC(C(=O)OC)NC2)cc1-c1nc(CC)c(CC)c(=O)[nH]1 (stereo not shown) [Example 174, methyl 5-(3-(4,5-diethyl-1,6-dihydro-6-oxopyrimidin-2-yl)-4-n-propoxybenzamido)piperidine-2-formate] | 450 pM | 450 pM | 13700 pM | 30.3 |  |
| CCCOc1ccc(NC(=O)c2ccccc2)cc1-c1nc(CC)c(CC)c(=O)[nH]1 [Example 186, N-(3-(4,5-diethyl-1,6-dihydro-6-oxopyrimidin-2-yl)-4-n-propoxyphenyl)benzamide] | 340 pM | 340 pM | 7400 pM | 21.4 |  |
